Experimental data published in patent US7683077B2, “Piperidine derivative” (Ajinomoto Co., Inc., priority 2003, dated 2010).

Molecular target: T1, Human 5-HT7a receptor (Homo sapiens, UniProt P34969)
T1 construct: host or cells: CHO-K1 (h5HT7-C1 cells)
Assay: Receptor binding assay (RBA) using 5HT-7 expression cells
Details: not given
Description: Receptor Binding Assay (RBA) Using 5HT-7 Expression Cells
Human 5-HT7a receptor expression CHO—K1 cells (Euroscreen; h5HT7-C1 cells, No. ES-317-C) were cultured in an incubator (CO2: 5%) at 37° C., using Ham's F-12 culture medium containing 400 μg/ml G418, 100 U/ml penicillin, 100 μg/ml streptomycin, and 10% fetal bovine serum. After removal of the culture medium, the cells were washed with phosphate-buffered saline (PBS(−)) free of Ca^2+ and Mg^2+, and then peeled away from a petri dish using HMEE buffer (20 mM HEPES-KOH (pH7.4), 1 mM EDTA, 1 mM EGTA, 2 mM MgCl2). The cells thus collected were homogenized on ice using a Teflon homogenizer, centrifuged at 1,500×g for 5 minutes at 4° C., and the resultant supernatant liquid was then recovered. The supernatant liquid was further centrifuged at 12,000×g for 30 minutes at 4° C. The resultant precipitate was suspended in a HMEE buffer and the resultant suspension was dispensed and flash-frozen in liquid nitrogen. Thus, the frozen product was maintained at −80° C. and melted at room temperature when used in practice. In a 96-well polystyrene round-bottom plate (Falcon, No. 351190), a membrane preparation, the test compound, and 2-[^125I]-(+)-iodo-lysergic acid diethylamide (Perkin Elmer Life Science, No. NEX199) were reacted at room temperature for 3 hours in 50 μL of a binding buffer (50 mM HEPES-NaOH (pH7.4), 1 mM CaCl2, 5 mM MgCl2, 0.5% BSA) in each well. After completion of the reaction, the mixture was trapped by suction into a 96-well GF/B Unifilter plate (Perkin Elmer Life Science, No. 6005177), 50 μL of 0.05% polyethyleneimine being previously added to each well. Each well of the above-mentioned Unifilter plate was washed with about 200 μL of a washing buffer (50 mM HEPES-NaOH (pH7.4), 1 mM CaCl2, 5 mM MgCl2, 0.5 M NaCl, 0.05% Tween-20) three times, and dried overnight. Then, 30 μL of Microscint (Packard, No. NR6013611) was added to each well. The amount of bound 2-[^125I]-(+)-iodo-lysergic acid diethylamide was determined using Top Counter (Packard). The count obtained when 100 μM of crozapine was used as the test compound was fixed at 0%, while the count obtained when no compound was added was fixed at 100%. The binding ratios of 2-[^125I]-(+)-iodo-lysergic acid diethylamide obtained at varied concentrations of the compound were expressed by percentage (%), and the relationship between the concentration of each compound and the binding ratio (%) was approximated to a sigmoid curve. A concentration of the compound corresponding to the binding ratio 50% of 2-[^125I]-(+)-iodo-lysergic acid diethylamide was defined as the value of IC50.

T1 sequence (P34969 1-445 isoform P34969-2): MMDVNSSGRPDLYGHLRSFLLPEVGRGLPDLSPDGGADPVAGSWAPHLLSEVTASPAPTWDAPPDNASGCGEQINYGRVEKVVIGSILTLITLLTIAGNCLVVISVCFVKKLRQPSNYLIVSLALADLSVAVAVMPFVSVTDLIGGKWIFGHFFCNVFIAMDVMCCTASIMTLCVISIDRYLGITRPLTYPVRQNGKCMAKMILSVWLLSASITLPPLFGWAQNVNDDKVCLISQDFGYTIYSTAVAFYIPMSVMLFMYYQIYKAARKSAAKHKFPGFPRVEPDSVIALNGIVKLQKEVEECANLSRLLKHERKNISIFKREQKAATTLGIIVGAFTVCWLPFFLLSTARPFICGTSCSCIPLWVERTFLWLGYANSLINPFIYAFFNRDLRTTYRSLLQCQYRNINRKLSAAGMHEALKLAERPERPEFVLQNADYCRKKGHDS

SMILES	IC50 [nM]
COc1ccccc1C(=C1CCN(C)CC1)c1ccc(Cl)c(Cl)c1 [Example 54]	31.6
CCN1CCC(=C(c2cccc(Cl)c2)c2cc(OC)ccc2OC)CC1 [Example 58]	15.8

Same assay, conditions: displacement of 2-[125I]-(+)-iodo-lysergic acid diethylamide, membranes of human 5-HT7a CHO-K1 cells; read-out: pIC50 (converted)

SMILES	IC50 [nM]
COc1ccc(C)cc1C(=C1CCN(C)CC1)c1cccc(Cl)c1 [Example 57]	31.6
COc1ccccc1C(=C1CCN(C)CC1)c1ccc(C)s1 [Example 56]	39.8
CCCN1CCC(=C(c2cccc(Cl)c2)c2ccccc2OC)CC1 [Example 7]	31.6
COc1ccccc1C(=C1CCN(CCNS(=O)(=O)c2cc(Cl)ccc2Cl)CC1)c1cccc(Cl)c1 [Example 49]	10
COc1ccccc1C(=C1CCN(C)CC1)c1ccc(Cl)s1 [Example 55]	39.8
COc1ccc(OC)c(C(=C2CCNCC2)c2cccc(Cl)c2)c1 [Example 4]	20
COc1ccccc1C(=C1CCN(CCCNC(=O)OC(C)(C)C)CC1)c1cccc(Cl)c1 [Example 36]	100
CCCCN1CCC(=C(c2cccc(Cl)c2)c2cc(OC)ccc2OC)CC1 [Example 60]	100
COc1ccccc1C(=C1CCN(C)CC1)c1cccc(Cl)c1 [Example 1]	39.8

Molecular target: T2, Human 5HT-7 (Homo sapiens, UniProt P34969)
T2 construct: host or cells: CHO-K1 (h5HT7-C2 cells)
Assay: Evaluation of 5HT-7 agonist activity using 5HT-7 expression cells (cAMP)
Type: cell-based
Details: cAMP in h5HT7-C2 CHO-K1 cells; 10 μM serotonin = 100%
Description: Evaluation of 5HT-7 Agonist Activity Using 5HT-7 Expression Cells
Then, the cAMP concentration was determined using a cAMP EIA kit (RPN225, Amersham) by the method in conformity of the attached protocol (Protocol 2. Acetylation EIA Procedure). […] The cAMP concentrations obtained with varied concentrations of the compound were expressed by percentage (%), and the relationship between the concentration of each compound and the cAMP (%) was approximated to a sigmoid curve. A concentration of the compound corresponding to the cAMP value that is a half the maximum value (Emax) on the approximated sigmoid curve was defined as the value of EC50.

T2 sequence (P34969 1-445 isoform P34969-2): as above

SMILES	EC50 [nM]
COc1ccc(OC)c(C(=C2CCNCC2)c2cccc(Cl)c2)c1 [Example 4]	87
